Results taken from US20250019410A1, “PROCESS FOR THE PREPARATION OF TIRZEPATIDE OR PHARMACEUTICALLY ACCEPTABLE SALT THEREOF” (Sun Pharmaceutical Industries Ltd., priority 2021, published 2025).

Type: physicochemical
Procedure: The solubility of the salts in water (see Table 3), methanol (see Table 4) and phosphate buffer (see Table 5) were tested.

| Compound | Solubility - in Water (descriptive term only) |
| --- | --- |
| CC[C@H](C)[C@H](NC(=O)[C@H](CC(C)C)NC(=O)[C@H](Cc1c[nH]c2ccccc12)NC(=O)[C@H](CCC(N)=O)NC(=O)[C@@H](NC(=O)[C@H](Cc1ccccc1)NC(=O)[C@H](C)NC(=O)[C@H](CCCCNC(=O)COCCOCCNC(=O)COCCOCCNC(=O)CC[C@H](NC(=O)CCCCCCCCCCCCCCCCCCC(=O)O)C(=O)O)NC(=O)[C@H](CCC(N)=O)NC(=O)[C@H](C)NC(=O)[C@@H](NC(=O)[C@H](CCCCN)NC(=O)[C@H](CC(=O)O)NC(=O)[C@H](CC(C)C)NC(=O)C(C)(C)NC(=O)[C@@H](NC(=O)[C@H](CO)NC(=O)[C@H](Cc1ccc(O)cc1)NC(=O)[C@H](CC(=O)O)NC(=O)[C@H](CO)NC(=O)[C@@H](NC(=O)[C@H](Cc1ccccc1)NC(=O)[C@@H](NC(=O)CNC(=O)[C@H](CCC(=O)O)NC(=O)C(C)(C)NC(=O)[C@@H](N)Cc1ccc(O)cc1)[C@@H](C)O)[C@@H](C)O)[C@@H](C)CC)[C@@H](C)CC)C(C)C)C(=O)N[C@@H](C)C(=O)NCC(=O)NCC(=O)N1CCC[C@H]1C(=O)N[C@@H](CO)C(=O)N[C@@H](CO)C(=O)NCC(=O)N[C@@H](C)C(=O)N1CCC[C@H]1C(=O)N1CCC[C@H]1C(=O)N1CCC[C@H]1C(=O)N[C@@H](CO)C(N)=O [Acetic acid content - 1.06%] | Practically insoluble in water |
| CC[C@H](C)[C@H](NC(=O)[C@H](CC(C)C)NC(=O)[C@H](Cc1c[nH]c2ccccc12)NC(=O)[C@H](CCC(N)=O)NC(=O)[C@@H](NC(=O)[C@H](Cc1ccccc1)NC(=O)[C@H](C)NC(=O)[C@H](CCCCNC(=O)COCCOCCNC(=O)COCCOCCNC(=O)CC[C@H](NC(=O)CCCCCCCCCCCCCCCCCCC(=O)O)C(=O)O)NC(=O)[C@H](CCC(N)=O)NC(=O)[C@H](C)NC(=O)[C@@H](NC(=O)[C@H](CCCCN)NC(=O)[C@H](CC(=O)O)NC(=O)[C@H](CC(C)C)NC(=O)C(C)(C)NC(=O)[C@@H](NC(=O)[C@H](CO)NC(=O)[C@H](Cc1ccc(O)cc1)NC(=O)[C@H](CC(=O)O)NC(=O)[C@H](CO)NC(=O)[C@@H](NC(=O)[C@H](Cc1ccccc1)NC(=O)[C@@H](NC(=O)CNC(=O)[C@H](CCC(=O)O)NC(=O)C(C)(C)NC(=O)[C@@H](N)Cc1ccc(O)cc1)[C@@H](C)O)[C@@H](C)O)[C@@H](C)CC)[C@@H](C)CC)C(C)C)C(=O)N[C@@H](C)C(=O)NCC(=O)NCC(=O)N1CCC[C@H]1C(=O)N[C@@H](CO)C(=O)N[C@@H](CO)C(=O)NCC(=O)N[C@@H](C)C(=O)N1CCC[C@H]1C(=O)N1CCC[C@H]1C(=O)N1CCC[C@H]1C(=O)N[C@@H](CO)C(N)=O [Ammonium content- 0.25%] | practically insoluble in water |
